According to patent publication US8877158B2, “Targeting agent to newly formed blood vessels” (FUJIFILM Corporation, priority 2009, dated 2014):

Legend:
αVβ3 integrin = molecular target: T1, αVβ3 integrin (Homo sapiens, UniProt P05106+P06756); assay: Inhibition of αVβ3-integrin-mediated HUVEC adhesion by anti-αV antibody; type: cell-based; conditions: coating 0.2 μg/well; antibody-treated vs untreated HUVECs
T1 construct: many αVβ3 integrin molecules are permanently expressed on the surfaces of HUVECs; host or cells: HUVEC (normal human umbilical vein endothelial cells)
Procedure: In order to identify binding between R-Gel and HUVECs as αVβ3-integrin-mediated binding, experimentation was conducted to determine whether or not R-Gel-to-cell adhesion would be inhibited by blocking αVβ3 integrin with an anti-αV antibody in the R-Gel-to-cell adhesiveness tests conducted in (7) above.
Specifically, cell adhesion experiments were conducted as described in (7) above. Experiments were conducted using the R-Gel-coated plate and the fibronectin-coated plate at a coating concentration of 0.2 μg/well. The prepared HUVECs were incubated with anti-human αV monoclonal antibodies (MAB1980: CHEMICON) at a sufficient concentration at 37° C. for 30 minutes, and they are described as “antibody-treated HUVECs”. On the other hand, the prepared HUVECs were incubated with the addition of the same amount of PBS at 37° C. for 30 minutes, and they are described as ““untreated HUVECs”. Cells were inoculated on plates with addition of a solution (100 μL/well) prepared in a manner such that it contained antibody-treated HUVECs or untreated HUVECs at a concentration of 1,000,000 cells/mL. The time for cell adhesion was determined to be 1 hour at 37° C. as in the case of (7) above. Quantitative determination of the number of cells was carried out by DNA assay as in the case of (7) above.

HUVECs = assay: HUVEC cell adhesiveness test on protein-coated plates (DNA assay, 1-cell area); type: cell-based, human
Source text: HUVECs (normal human umbilical vein endothelial cells; Takara Bio Inc.) were used as vascular endothelial cells. It is known that many αVβ3 integrin molecules are permanently expressed on the surfaces of HUVECs. By testing cell adhesiveness of R-Gel to HUVECs, binding of R-Gel to vascular endothelial cells activated by newly formed blood vessels can be elucidated. Also, binding of R-Gel to αVβ3 integrin that has been reported to be highly expressed at newly formed blood vessel sites can be elucidated.
For culture of HUVECs, endothelial cell basic medium-2 (containing no serum) (EBM™-2) and endothelial cell medium kit-2 (2% FBS) (EGM™-2 BulletKit™) were used (Takara Bio Inc.). Upon subculture and removal of cells, an EDTA-containing 0.25% trypsin solution was used. HUVECs that had been allowed to proliferate to a sufficient amount in a T-75 flask were removed from the bottom surface of the flask, followed by centrifugation for removal of the supernatant. Then, the resultant was washed with the above endothelial cell basic medium-2 containing the endothelial cell medium kit 2. Centrifugation was performed again to remove the supernatant. […] The number of living cells was counted using cell counter. […]
DNA assay was performed for quantitative determination of the number of cells on the obtained plates. […]

[1] = in vivo, 24 h; cited from earlier work
neovascular site = assay: Inhibition of accumulation of R-Gel in neovascular site by previous administration of cyclo-RGDfK; type: in vivo, mouse; conditions: for fluorescence intensity in the neovascular site: average±S.D.
Procedure: In order to evaluate whether accumulation of R-Gel in neovascular site is targeting caused by the same mechanism as that of circular RGD peptide cyclo-RGDfK, whether accumulation of R-Gel would be inhibited by previously administering a large amount of cyclo-RGDfK was examined. Unlabeled cyclo-RGDfK was dissolved in a concentration of 1 mg/ml in ultrapure water, and thereafter, 100 μL of the obtained solution was administered to a mouse via caudal vein administration. Thirty minutes later, 100 μL of Cy7-R-Gel was administered thereto via caudal vein administration. As a control, instead of cyclo-RGDfK, 100 μL of PBS (phosphate buffer) was administered to a mouse via caudal vein administration, and thirty minutes later, 100 μL of Cy7-R-Gel was administered thereto via caudal vein administration. After completion of the administration, fluorescence intensity in the neovascular site was measured over time. When the fluorescence intensity was measured 1 hour after the administration, the fluorescence intensity in the PBS administration group was 98063583±1200251 (average±S.D.), whereas the fluorescence intensity in the cyclo-RGDfK administration group was 81431011±1373625 (average±S.D.). […] Likewise, in the measurement 3 hours after the administration, the fluorescence intensity in the PBS administration group was 88124139±3438695 (average±S.D.), whereas the fluorescence intensity in the cyclo-RGDfK administration group was 60269975±1267782 (average±S.D.). In the measurement 24 hours after the administration, the fluorescence intensity in the PBS administration group was 22196881±2549892 (average±S.D.), whereas the fluorescence intensity in the cyclo-RGDfK administration group was 12763810±1927458 (average±S.D.).

[2] = tested on: tumor site and tumoral neovascular site; assay: Imaging of tumor site and tumoral neovascular site of cancer-bearing animal (Colon-26 homograft); type: in vivo, BALB/c mouse; conditions: cyclo-RGDfK administered 30 minutes before Cy7-R-Gel
Procedure: As a tumor-bearing animal model, a cancer-bearing animal was produced. As an animal, BALB/c mouse (female, 6-week-old; Japan SLC, Inc.) was used. Tumor was produced using a cancer cell homograft model. As cancer cells, Colon-26 (which were cells derived from BALB/c mouse colon cancer) was used, and these cells were cultured in large scale in an RPMI1640 medium containing 10% fetal bovine serum. For the culture, a T-225 flask was used. Using EDTA-containing 0.25% trypsin, the growing cancer cells were removed from the bottom of the flask, and a culture supernatant was then removed by centrifugation. Thereafter, the solution was replaced with PBS (phosphate buffer), and the cell concentration was then counted using a cell counter. […]
200 μL of the Cy7-R-Gel or Cy7-animal gelatin produced in (6) above was administered to the cancer-bearing animal produced in (9) above via caudal vein administration, and a fluorescence imaging experiment was then carried out from the outside of the body of the animal.
For detection of a fluorescence signal, measurement, and imaging, Lumino image analyzer LAS5000 (a trial product of Fujifilm Corporation) was used. A visible light image and a fluorescence image were simultaneously taken, and the two images were then overlapped to identify a site from which fluorescence was emitted. […]

T1 sequence (P06756 31-889 limits assumed): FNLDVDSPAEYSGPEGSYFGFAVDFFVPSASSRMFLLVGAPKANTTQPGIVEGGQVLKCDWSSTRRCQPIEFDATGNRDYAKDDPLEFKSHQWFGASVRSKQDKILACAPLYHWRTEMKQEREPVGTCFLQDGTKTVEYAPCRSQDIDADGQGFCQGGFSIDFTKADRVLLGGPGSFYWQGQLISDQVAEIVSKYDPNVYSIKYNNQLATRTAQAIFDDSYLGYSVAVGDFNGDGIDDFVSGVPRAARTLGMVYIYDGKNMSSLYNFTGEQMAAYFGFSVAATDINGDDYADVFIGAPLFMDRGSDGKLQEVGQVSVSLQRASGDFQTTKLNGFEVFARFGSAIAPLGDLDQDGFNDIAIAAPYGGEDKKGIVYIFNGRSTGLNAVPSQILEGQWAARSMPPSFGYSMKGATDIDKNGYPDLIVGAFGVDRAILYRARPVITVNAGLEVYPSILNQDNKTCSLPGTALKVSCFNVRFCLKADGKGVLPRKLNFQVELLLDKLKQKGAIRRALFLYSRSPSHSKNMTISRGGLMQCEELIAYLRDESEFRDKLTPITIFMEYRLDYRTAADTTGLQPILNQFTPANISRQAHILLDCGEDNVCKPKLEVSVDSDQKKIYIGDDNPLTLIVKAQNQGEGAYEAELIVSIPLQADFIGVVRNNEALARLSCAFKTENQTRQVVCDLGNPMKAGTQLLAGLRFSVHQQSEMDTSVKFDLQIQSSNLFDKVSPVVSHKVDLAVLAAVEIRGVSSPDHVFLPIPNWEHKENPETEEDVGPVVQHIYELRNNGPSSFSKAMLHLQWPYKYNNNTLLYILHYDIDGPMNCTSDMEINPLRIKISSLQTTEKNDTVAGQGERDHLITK
T1 sequence (P06756 891-1048 partner limits assumed): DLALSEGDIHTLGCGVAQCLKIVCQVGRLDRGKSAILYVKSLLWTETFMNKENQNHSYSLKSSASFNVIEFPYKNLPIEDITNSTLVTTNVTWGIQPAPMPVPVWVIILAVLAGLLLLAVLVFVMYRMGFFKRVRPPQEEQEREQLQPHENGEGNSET
T1 sequence (P05106 27-788): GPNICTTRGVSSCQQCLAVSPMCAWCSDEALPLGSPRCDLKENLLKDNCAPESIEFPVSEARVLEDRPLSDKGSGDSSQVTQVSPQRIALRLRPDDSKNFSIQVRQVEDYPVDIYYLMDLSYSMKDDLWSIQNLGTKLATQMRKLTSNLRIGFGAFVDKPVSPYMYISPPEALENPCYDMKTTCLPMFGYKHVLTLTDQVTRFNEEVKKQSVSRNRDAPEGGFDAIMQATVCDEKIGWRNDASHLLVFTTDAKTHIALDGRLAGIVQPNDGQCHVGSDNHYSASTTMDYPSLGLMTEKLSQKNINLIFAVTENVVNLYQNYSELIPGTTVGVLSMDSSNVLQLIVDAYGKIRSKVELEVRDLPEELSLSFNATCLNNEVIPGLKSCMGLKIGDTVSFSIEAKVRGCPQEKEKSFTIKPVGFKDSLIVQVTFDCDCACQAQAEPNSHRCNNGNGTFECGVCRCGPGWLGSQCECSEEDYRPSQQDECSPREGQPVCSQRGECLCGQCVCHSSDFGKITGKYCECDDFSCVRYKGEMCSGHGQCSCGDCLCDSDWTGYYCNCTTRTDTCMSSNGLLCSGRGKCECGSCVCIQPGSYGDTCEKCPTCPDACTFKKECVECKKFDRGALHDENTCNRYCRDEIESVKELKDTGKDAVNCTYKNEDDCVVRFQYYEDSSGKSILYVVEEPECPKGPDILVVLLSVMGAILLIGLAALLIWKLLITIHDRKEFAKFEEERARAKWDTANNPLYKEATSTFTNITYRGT

## R-Gel: recombinant gelatin CBE3, SEQ ID NO: 1, GAP[(GXY)63]3G, 571 amino acids, 12 RGD sequences
αVβ3 integrin
  adhesion to HUVECs treated with anti-human αV monoclonal antibody (MAB1980): significantly inhibited
HUVECs; coated plates 0.02-2.0 μg/well, 1 hour at 37° C.
  adhesion to HUVECs (number of cells by DNA assay): superior to fibronectin, Fibrogen, PSK, and G1917P
HUVECs; from photos, ImageJ
  1-cell area of HUVEC adhering to coated plate: significantly superior to Fibrogen, PSK, and G1917P

## cyclic-RGDyK
[1]
  amount of the circular RGD peptide remaining in the body: ≤ 15%

## cyclo-RGDfK
Neovascular site; Cy7-R-Gel 30 min after cyclo-RGDfK (1 mg/ml, 100 μL) pre-administration, 1 hour after the administration
  fluorescence intensity in the neovascular site: 81431011±1373625
Neovascular site; Cy7-R-Gel 30 min after cyclo-RGDfK pre-administration, 3 hours after the administration
  fluorescence intensity in the neovascular site: 60269975±1267782
Neovascular site; Cy7-R-Gel 30 min after cyclo-RGDfK pre-administration, 24 hours after the administration
  fluorescence intensity in the neovascular site: 12763810±1927458
Neovascular site; large amount of cyclo-RGDfK administered 30 min before Cy7-R-Gel
  effect of previous administration of cyclo-RGDfK on accumulation of R-Gel in blood vessels: inhibits the effect of R-Gel to accumulate in blood vessels
[2]
  accumulation of R-Gel in the tumoral neovascular site and the tumor site after previous cyclo-RGDfK: decreased

## fibronectin
αVβ3 integrin
  adhesion to HUVECs treated with anti-human αV monoclonal antibody (MAB1980): significantly inhibited
